In US11786457B2, “Peritumoral and intratumoral materials for cancer therapy” (President and Fellows of Harvard College, priority 2015, dated 2023):

Experiments:
[1] = tested on: human embryonic kidney (HEK) toll-like receptor-3 (TLR3) cells; assay: Bioactivity of poly I:C released from CryogelMA on HEK TLR3 cells; format: cell-based; conditions: in vitro, supernatants over several days, absorbance
From the text: FIG. 8 is a line graph showing CryogelMA poly I:C release and bioactivity. […] Doing this in the tumor microenvironment stimulates maturation of recruited antigen-presenting cells (APCs) and results in antitumor immunity.

CD137 = CD137 (Homo sapiens, UniProt Q07011); conditions: several clinical trials, Ascierto et al., 2010; cited from earlier work
immune cells = assay: Click alginate cryogel with cytokines/chemokines placed under the skin, screened for immune cell accumulation; format: in vivo; conditions: Cryoclick gels
From the text: FIG. 12 is a series of photographs showing immune cell accumulation using GM-CSF—DC growth/differentiation factor in the device. FIGS. 12-15 show data using Cryoclick gels. Using a click alginate cryogel, a number of cytokines and chemokines were placed under the skin and screened for resulting activity in terms of immune cell accumulation.

[2] = tested on: human lung cancer and breast cancer; conditions: PNAS 2012 109 (24) 9623-9628; cited from earlier work

Sequence of CD137 (Q07011 24-255): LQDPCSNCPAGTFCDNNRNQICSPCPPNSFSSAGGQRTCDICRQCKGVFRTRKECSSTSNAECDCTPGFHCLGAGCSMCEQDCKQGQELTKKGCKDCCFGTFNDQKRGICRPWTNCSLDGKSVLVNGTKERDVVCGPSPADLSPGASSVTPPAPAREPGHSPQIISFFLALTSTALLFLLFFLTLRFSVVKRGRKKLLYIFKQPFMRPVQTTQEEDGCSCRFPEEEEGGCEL

With “polyinosine-polycytidylic acid [poly I:C]” the “response of HEK TLR3 cells to supernatants” value [1] was “produce a response measured by absorbance”.

In the case of BMS-66513: anti-CD137 antibody, the clinical response (CD137) is listed as “partial remissions in disease” and the clinical toxicity (CD137) is listed as “liver toxicity”.

In the case of “CCL20: Chemokine (C-C motif) ligand 20, DC chemokine”, the “immune cell accumulation at gel placed under the skin” value (immune cells) is reported as “bright DC staining at gel periphery”.

For `CN(CC(=O)N(Cc1ccc(C2CCCCC2)cc1)c1ccc(C(=O)O)c(O)c1)S(=O)(=O)c1c(F)c(F)c(F)c(F)c1F` [BP-1-102], the “activity against tumors in animals” value [2] is listed as “active”.

In the case of `COc1cccc2c1C(=O)c1c(O)c3c(c(O)c1C2=O)C[C@@](O)(C(=O)CO)C[C@@H]3O[C@H]1C[C@H](N)[C@H](O)[C@H](C)O1` [doxorubicin], the “cell death at the tumor close to the scaffold border” value (tumor cells; day 3 after peritumoral injection, cleaved-caspase 3 staining) is reported as “local cell death is induced” and the “effect on surrounding normal tissue” value (tumor cells; local delivery from the gels, FIG. 22) is reported as “much less affected”.

With “IL-15: interleukin-15, T cell/NK cell survival factor” the “immune cell accumulation at gel placed under the skin” value (immune cells) was “accumulation of CD4 and CD8 T cells in the skin”.
